Data set [1] concerns HIV-associated myopathy and muscle weakness/wasting. Description: Case example: HIV-seropositive patient with HIV-associated myopathy and muscle weakness/wasting. The data set is classed as in vivo, human. The following applies: for return to previous levels of function and strength: trial after oxandrolone was no longer obtainable. The text has this:
A patient, a homosexual person, known to be HIV-seropositive since February 1989, noted difficulty opening drawers and bottles in May 1989. […] However, their muscle stretch reflexes remained normal.
They complained of an inability to ascend a flight of stairs. […] The patient's creatine kinase tested at 456 Units per liter. […] Round cell inflammatory infiltrates were also noted. In light of these developments, the zidovudine treatment was terminated.
Substantial improvement initially followed the discontinuation of zidovudine. However, because of a subsequent continued and progressive weakness rendering it difficult for the patient to ascend or descend a flight of stairs, a prednisone therapy (60 mg daily) was initiated.
Thereafter, a trial period of oral oxandrolone administration (2.5 milligrams, three times daily, in tablet form) was initiated. […] The patient's weight increased from 115 pounds to 130 pounds. The patient's muscle atrophy was alleviated as well.
After several months of the aforementioned therapy with oxandrolone, the patient was no longer able to obtain oxandrolone for use as a medication. Weakness and weight loss ensued.

The test system of data set [2] is patients with uterine cervical cancer. The following applies: administered parentally; cited from earlier work.
For data set [3] the following is noted: published parameter; cited from earlier work.
The subject of data set [4] is patients with acute alcoholic hepatitis. Particulars: cited from earlier work.
The conditions of data set [5]: cited from earlier work.
Another data set concerns chronic renal failure. Particulars: cited from earlier work.
For the next data set, the system named is acute uremic rats. The following applies: cited from earlier work.
The mark [6] stands for this setting: man, oral 10 milligram dose, biphasic decline.
Where [7] appears, read: oral 2.5 milligrams three times daily.

Each structure is given as a SMILES string. Read-outs that look alike come from different tables or passages of the source.

Usually Tmax stands for the time from dosing to the highest level. For orientation: Vd means the apparent volume that relates the amount in the body to the concentration in plasma or blood.

On to `C[C@]12C=CC(=O)C=C1CC[C@@H]1[C@@H]2C(=O)C[C@@]2(C)[C@H]1CC[C@]2(O)C(=O)CO` [prednisone], for which the improvement of weakness result in data set [1] (60 mg daily) is on record as “No significant improvement”.
Take `CCCCCCCCCC(=O)O[C@H]1CC[C@H]2[C@@H]3CCC4=CC(=O)CC[C@@H]4[C@H]3CC[C@]12C` [nandrolone decanonate]: in data set [2], the “macrophage activity and cell-mediated immunity” value was “enhanced macrophage activity and cell-mediated immunity”.
For `CC1(O)CC[C@H]2[C@@H]3CCC4CC(=O)OC[C@]4(C)[C@H]3CC[C@@]21C` (stereo partly shown) [oxandrolone, 17-hydroxy-17-methyl-2-oxaandrostan-3-one], in data set [3], the “Biological T½” value is given as 9.4 hr, the Glucuronidation result is given as “Little”, the Metabolism result is reported as “Little” and the “Oral Bioavailability” value is given as 100%. In addition, in data set [3], the “Plasma Clearance” value is 0.717 mL/min/kg, the Tmax was 1.1 h, the Vd was 0.578 L/kg and the “protein binding” value is above 95%. For the same compound, in data set [4] (daily doses up to 80 mg/day for four weeks and 40 mg/day for eight weeks), the drug-related nephrotoxicity entry is reported as “did not result in any drug-related nephrotoxicity”. The lymphocyte number result in data set [4] (patients with severe alcoholic hepatitis) is listed as “significantly improved lymphocyte number”. Further, the “urinary excretion of the administered dose” value in data set [5] (after 96 hours) was “approximately 65%”. For the same compound, in data set [5] (setting [6]), the distribution half-life result is “approximately 30 minutes” and the elimination half-life was 9.4 h. Further, in data set [5] (man, oral 10 milligram dose), the absorption result was “rapidly and completely absorbed”; the “time of mean peak plasma concentration” value was 66 min. For the same compound, the protein binding result in data set [5] (man) is “extensive”. Also, the fecal excretion entry in data set [5] (over the same time period (96 hours)) is on record as “less than 3%”. The form of excretion entry in data set [5] (taken orally) was “excreted mainly unchanged and unconjugated in urine”. For the same compound, the “urinary excretion of an oral dose” value in data set [5] (within 72 hours after ingestion) is given as “approximately 35%”. For the same compound, the “clinical improvement after administration” value in the data set with chronic renal failure is “clinical improvement in appetite, cell mass, linear growth, and weight for height”. In addition, in data set [1] (setting [7]), the “ability to use stairs within one month” value is “able to ascend and descend stairs without problems”; the muscle atrophy entry is reported as “alleviated”; the “strength by confrontation testing” value is reported as “nearly normal strength”. In addition, the “liver functions / side effects” value in data set [1] (oral 2.5 milligrams three times daily, liver functions closely monitored) is “undesirable side effects were not detected”. For the same compound, the “patient's well being, strength and weight within two weeks” value in data set [1] (oral 2.5 milligrams three times daily, tablet) is “improved sense of well being, became stronger, and gained weight”. Moreover, in data set [1] (oral 2.5 milligrams three times daily, increased from 115 pounds), the “patient's weight after therapy” value came out at 130 pounds. Moreover, the muscle protein synthesis result in the data set with acute uremic rats is given as “increased muscle protein synthesis”.
For the compound `C[C@]12C/C(=C/O)C(=O)C[C@@H]1CC[C@@H]1[C@@H]2CC[C@@]2(C)[C@H]1CC[C@]2(C)O` [oxymethalone], the “return to previous levels of function and strength” value in data set [1] is “did not return the patient to their previous levels of function and strength”.
The same measure, in the same setting: as for `C[C@]12Cc3c[nH]nc3C[C@@H]1CC[C@@H]1[C@@H]2CC[C@@]2(C)[C@H]1CC[C@]2(C)O` [stanazol], the entry is “did not return the patient to their previous levels of function and strength”.

Values taken from patent US6670351B1, “Method for ameliorating muscle weakness/wasting in a patient infected with human immunodeficiency virus-type 1” (Bio-Technology General Corporation, priority 1992, dated 2003).
